System: A549 cells
Experiment: Microarray analysis of gene expression after LAQ824 treatment
Type: cell-based, human
Conditions: for Fold change AMP-activated protein kinase family member 5 (ARK5) 204589_at / Fold change ANP32B acidic (leucine-rich) nuclear phosphoprotein 32 family, member B (SSP29) 201305_x_at / Fold change AVEN apoptosis, caspase activation inhibitor (Aven) 219366_at / Fold change B-cell CLL/lymphoma 3 (BCL3) 204908_s_at / Fold change BAI1-associated protein 2 (BAP2, IRSp53) 205293_x_at / Fold change BAI1-associated protein 3 (BAP3, KIAA0734) 204874_x_at / Fold change BAI1-associated protein 3 (BAP3, KIAA0734) 216356_x_at / Fold change BCL2-associated athanogene 2 (BAG-2) 209406_at / Fold change BCL2-interacting killer (apoptosis-inducing) (BP4, NBK, BIP1) 205780_at / Fold change BCL2-like 1 (BCL2L1) 206665_s_at / Fold change BH3 interacting domain death agonist (BID) 204493_at / Fold change Cyclin A2 (CCN1, CCNA) 203418_at / Fold change Cyclin-dependent kinase inhibitor 2D (p19, inhibits CDK4) (INK4D) 210240_s_at / Fold change DEC1-anti apoptosis (BHLHB2) 201169_s_at / Fold change Diphtheria toxin receptor (heparin-binding epidermal growth factor-like growth factor) (DTR) 203821_at / Fold change Early growth response 1 (TIS8, NGFI-A, KROX-24, ZIF-268) 201694_s_at / Fold change GMCL germ cell-less homolog (Drosophila) (GMCL) 218458_at / Fold change Katanin p80 (WD40-containing) subunit B 1 (KAT) 203163_at / Fold change NACHT, leucine rich repeat and PYD containing 1 (PP1044) 218380_at / Fold change Paternally expressed Gene 10 (PEG10) 212092_at / Fold change Paternally expressed Gene 10 (PEG10) 212094_at / Fold change Protein regulator of cytokinesis 1 (PRC1) 218009_s_at / Fold change SKAP55 protein 216899_s_at / Fold change Secreted frizzled-related protein 1 (FRP, SARP2) 202036_s_at / Fold change Secreted frizzled-related protein 1 (FRP, SARP2) 202037_s_at / Fold change Serine/threonine kinase 6 (AIK) 208079_s_at / Fold change Tribbles homolog 3a (TRIB3) 218145_at / Fold change Tumor necrosis factor receptor superfamily, member 6 (TNFRSF6) 215719_x_at / Fold change Tumor necrosis factor receptor superfamily, member 6 (TNFRSF6) 216252_x_at / Fold change Tumor protein p53 (Li-Fraumeni syndrome) 201746_at / Fold change Tumor protein p53 (Li-Fraumeni syndrome) 211300_s_at / Fold change member of the N-myc downregulated gene family (NDRG4) 209159_s_at: A549, 500 nM vs DMSO
Protocol: The human lung carcinoma cell line A549 is obtained from the American Type Culture Collection (Rockville, Md.) and cultured in F-12K (ATCC, Manassas, Va.), 10% fetal bovine serum, and 1% penicillin/streptomycin (Life Technologies, Inc.). LAQ824 (Novartis) is added directly to the cell medium at a final concentration of 500 nM. Microarray analysis is performed essentially as described previously (Welsh, 2001). Total RNA is prepared from A549 cells treated with LAQ 824 or DMSO for 0.5, 2, 6, 12 and 24 h. Labelled cDNA is prepared and hybridized to Affymetrix U133 oligonucleotide GeneChip® (Affymetrix, Santa Clara, Calif.). The arrays were scanned on an Affymetrix GeneArray scanner and analyzed with GENECHIP Microarray Analysis Suite 5.0 software (MAS5) (Affymetrix). The data (raw data including image files and scanner files (Cel. Files) as well as the MAS5 normalized data are stored in the DEMON Database. The MAS5 normalized data are exported from the database and analyzed using GeneSpring software version 6.1. The genes are filtered for a minimal expression of 100 in at least one condition (the condition being defined as the average the value for the 3 samples corresponding to a given time point and a treatement) The gene expression changes (fold change) are calculated for each time point (t) as follow: (Gene expression level LAQ824 treated—(Average of the 3 replicates) Time (t))/(Gene expression level DMSO treated—(Average of the 3 replicates) Time (t)).
Any fold change <0 indicated a down regulation or reduction of the mRNA production, any fold change >0 indicated an up regulation or increase of mRNA production. Genes are filtered according to the fold change and the statistical significance of the changes (1-way-ANOVA test p<0.05)).

For O=C(/C=C/c1ccc(CN(CCO)CCc2c[nH]c3ccccc23)cc1)NO [LAQ824, N-Hydroxy-3-[4-[[(2-hydroxyethyl)[2-(1H-indol-3-yl)-ethyl]-amino]methyl]phenyl]-2E-2-propenamide], the “Fold change AMP-activated protein kinase family member 5 (ARK5) 204589_at” value (12 h) was −4.6 fold, the “Fold change ANP32B acidic (leucine-rich) nuclear phosphoprotein 32 family, member B (SSP29) 201305_x_at” value (12 h) was −5.1 fold and the “Fold change AVEN apoptosis, caspase activation inhibitor (Aven) 219366_at” value (12 h) was −2.6 fold. For the same compound, the “Fold change B-cell CLL/lymphoma 3 (BCL3) 204908_s_at” value (12 h) was −5.5 fold, the “Fold change BAI1-associated protein 2 (BAP2, IRSp53) 205293_x_at” value (12 h) was 6.8 fold and the “Fold change BAI1-associated protein 3 (BAP3, KIAA0734) 204874_x_at” value (12 h) was 15.9 fold. The “Fold change BAI1-associated protein 3 (BAP3, KIAA0734) 216356_x_at” value (12 h) was 27.9 fold, the “Fold change BCL2-associated athanogene 2 (BAG-2) 209406_at” value (12 h) was −3.3 fold and the “Fold change BCL2-interacting killer (apoptosis-inducing) (BP4, NBK, BIP1) 205780_at” value (12 h) was 12.0 fold. The “Fold change BCL2-like 1 (BCL2L1) 206665_s_at” value (12 h) was −7.6 fold, the “Fold change BH3 interacting domain death agonist (BID) 204493_at” value (12 h) was −3.6 fold and the “Fold change Cyclin A2 (CCN1, CCNA) 203418_at” value (12 h) was −2.3 fold. For the same compound, the “Fold change Cyclin-dependent kinase inhibitor 2D (p19, inhibits CDK4) (INK4D) 210240_s_at” value (12 h) was 4.8 fold, the “Fold change DEC1-anti apoptosis (BHLHB2) 201169_s_at” value (12 h) was −4.8 fold and the “Fold change Diphtheria toxin receptor (heparin-binding epidermal growth factor-like growth factor) (DTR) 203821_at” value (12 h) was 13.1 fold. For the same compound, the “Fold change Early growth response 1 (TIS8, NGFI-A, KROX-24, ZIF-268) 201694_s_at” value (12 h) was 11.2 fold, the “Fold change GMCL germ cell-less homolog (Drosophila) (GMCL) 218458_at” value (12 h) was 3.8 fold and the “Fold change Katanin p80 (WD40-containing) subunit B 1 (KAT) 203163_at” value (12 h) was 4.3 fold. For the same compound, the “Fold change NACHT, leucine rich repeat and PYD containing 1 (PP1044) 218380_at” value (12 h) was 11.3 fold, the “Fold change Paternally expressed Gene 10 (PEG10) 212092_at” value (12 h) was 3.8 fold and the “Fold change Paternally expressed Gene 10 (PEG10) 212094_at” value (12 h) was 3.5 fold. The “Fold change Protein regulator of cytokinesis 1 (PRC1) 218009_s_at” value (12 h) was −2.5 fold, the “Fold change SKAP55 protein 216899_s_at” value (12 h) was 1.8 fold and the “Fold change Secreted frizzled-related protein 1 (FRP, SARP2) 202036_s_at” value (12 h) was 3.9 fold. For the same compound, the “Fold change Secreted frizzled-related protein 1 (FRP, SARP2) 202037_s_at” value (12 h) was 3.9 fold, the “Fold change Serine/threonine kinase 6 (AIK) 208079_s_at” value (12 h) was −2.4 fold and the “Fold change Tribbles homolog 3a (TRIB3) 218145_at” value (12 h) was −4.0 fold. For the same compound, the “Fold change Tumor necrosis factor receptor superfamily, member 6 (TNFRSF6) 215719_x_at” value (12 h) was −6.3 fold, the “Fold change Tumor necrosis factor receptor superfamily, member 6 (TNFRSF6) 216252_x_at” value (12 h) was −4.9 fold and the “Fold change Tumor protein p53 (Li-Fraumeni syndrome) 201746_at” value (12 h) was −4.4 fold. For the same compound, the “Fold change Tumor protein p53 (Li-Fraumeni syndrome) 211300_s_at” value (12 h) was −3.7 fold, the “Fold change member of the N-myc downregulated gene family (NDRG4) 209159_s_at” value (12 h) was 7.3 fold and the “Fold change AMP-activated protein kinase family member 5 (ARK5) 204589_at” value (24 h) was −1.9 fold. The “Fold change ANP32B acidic (leucine-rich) nuclear phosphoprotein 32 family, member B (SSP29) 201305_x_at” value (24 h) was −7.3 fold, the “Fold change AVEN apoptosis, caspase activation inhibitor (Aven) 219366_at” value (24 h) was −8.2 fold and the “Fold change B-cell CLL/lymphoma 3 (BCL3) 204908_s_at” value (24 h) was −1.8 fold. For the same compound, the “Fold change BAI1-associated protein 2 (BAP2, IRSp53) 205293_x_at” value (24 h) was 3.6 fold, the “Fold change BAI1-associated protein 3 (BAP3, KIAA0734) 204874_x_at” value (24 h) was 10.9 fold and the “Fold change BAI1-associated protein 3 (BAP3, KIAA0734) 216356_x_at” value (24 h) was 19.2 fold. The “Fold change BCL2-associated athanogene 2 (BAG-2) 209406_at” value (24 h) was −4.4 fold, the “Fold change BCL2-interacting killer (apoptosis-inducing) (BP4, NBK, BIP1) 205780_at” value (24 h) was 15.5 fold and the “Fold change BCL2-like 1 (BCL2L1) 206665_s_at” value (24 h) was −2.0 fold. For the same compound, the “Fold change BH3 interacting domain death agonist (BID) 204493_at” value (24 h) was −4.6 fold, the “Fold change Cyclin A2 (CCN1, CCNA) 203418_at” value (24 h) was −13.3 fold and the “Fold change Cyclin-dependent kinase inhibitor 2D (p19, inhibits CDK4) (INK4D) 210240_s_at” value (24 h) was 2.0 fold. For the same compound, the “Fold change DEC1-anti apoptosis (BHLHB2) 201169_s_at” value (24 h) was −1.9 fold, the “Fold change Diphtheria toxin receptor (heparin-binding epidermal growth factor-like growth factor) (DTR) 203821_at” value (24 h) was 3.2 fold and the “Fold change Early growth response 1 (TIS8, NGFI-A, KROX-24, ZIF-268) 201694_s_at” value (24 h) was 4.6 fold. For the same compound, the “Fold change GMCL germ cell-less homolog (Drosophila) (GMCL) 218458_at” value (24 h) was 2.3 fold, the “Fold change Katanin p80 (WD40-containing) subunit B 1 (KAT) 203163_at” value (24 h) was 2.9 fold and the “Fold change NACHT, leucine rich repeat and PYD containing 1 (PP1044) 218380_at” value (24 h) was 22.7 fold. The “Fold change Paternally expressed Gene 10 (PEG10) 212092_at” value (24 h) was 7.0 fold, the “Fold change Paternally expressed Gene 10 (PEG10) 212094_at” value (24 h) was 6.5 fold and the “Fold change Protein regulator of cytokinesis 1 (PRC1) 218009_s_at” value (24 h) was −5.1 fold. The “Fold change SKAP55 protein 216899_s_at” value (24 h) was 4.0 fold, the “Fold change Secreted frizzled-related protein 1 (FRP, SARP2) 202036_s_at” value (24 h) was 4.5 fold and the “Fold change Secreted frizzled-related protein 1 (FRP, SARP2) 202037_s_at” value (24 h) was 4.4 fold. The “Fold change Serine/threonine kinase 6 (AIK) 208079_s_at” value (24 h) was −8.3 fold, the “Fold change Tribbles homolog 3a (TRIB3) 218145_at” value (24 h) was −10.1 fold and the “Fold change Tumor necrosis factor receptor superfamily, member 6 (TNFRSF6) 215719_x_at” value (24 h) was −4.8 fold. The “Fold change Tumor necrosis factor receptor superfamily, member 6 (TNFRSF6) 216252_x_at” value (24 h) was −5.6 fold, the “Fold change Tumor protein p53 (Li-Fraumeni syndrome) 201746_at” value (24 h) was −7.1 fold and the “Fold change Tumor protein p53 (Li-Fraumeni syndrome) 211300_s_at” value (24 h) was −7.3 fold. The “Fold change member of the N-myc downregulated gene family (NDRG4) 209159_s_at” value (24 h) was 4.5 fold and the “NF—Y gene expression in response to LAQ824 treatment” value (A549 cells, DNA microarray analysis) was “significantly up-regulated”.

Source: patent US20070082339A1, “Methods and compositions for screening for HDAC inhibitory activity” (priority 2005, published 2007)
